Measured values published in US12303497B2, “Anti-androgens for the treatment of metastatic castration-sensitive prostate cancer” (priority 2019, dated 2025).

What was measured:
[1] = Ionization under physiological pH; type: physicochemical; details: relevant physiological pH condition
[2] = target: CYP2B6 (Homo sapiens, UniProt P20813); test: In vitro CYP inhibition
[3] = target: P-gp (Homo sapiens, UniProt P08183); test: In vitro transporter substrate study
Chain of P-gp (P08183 whole entry): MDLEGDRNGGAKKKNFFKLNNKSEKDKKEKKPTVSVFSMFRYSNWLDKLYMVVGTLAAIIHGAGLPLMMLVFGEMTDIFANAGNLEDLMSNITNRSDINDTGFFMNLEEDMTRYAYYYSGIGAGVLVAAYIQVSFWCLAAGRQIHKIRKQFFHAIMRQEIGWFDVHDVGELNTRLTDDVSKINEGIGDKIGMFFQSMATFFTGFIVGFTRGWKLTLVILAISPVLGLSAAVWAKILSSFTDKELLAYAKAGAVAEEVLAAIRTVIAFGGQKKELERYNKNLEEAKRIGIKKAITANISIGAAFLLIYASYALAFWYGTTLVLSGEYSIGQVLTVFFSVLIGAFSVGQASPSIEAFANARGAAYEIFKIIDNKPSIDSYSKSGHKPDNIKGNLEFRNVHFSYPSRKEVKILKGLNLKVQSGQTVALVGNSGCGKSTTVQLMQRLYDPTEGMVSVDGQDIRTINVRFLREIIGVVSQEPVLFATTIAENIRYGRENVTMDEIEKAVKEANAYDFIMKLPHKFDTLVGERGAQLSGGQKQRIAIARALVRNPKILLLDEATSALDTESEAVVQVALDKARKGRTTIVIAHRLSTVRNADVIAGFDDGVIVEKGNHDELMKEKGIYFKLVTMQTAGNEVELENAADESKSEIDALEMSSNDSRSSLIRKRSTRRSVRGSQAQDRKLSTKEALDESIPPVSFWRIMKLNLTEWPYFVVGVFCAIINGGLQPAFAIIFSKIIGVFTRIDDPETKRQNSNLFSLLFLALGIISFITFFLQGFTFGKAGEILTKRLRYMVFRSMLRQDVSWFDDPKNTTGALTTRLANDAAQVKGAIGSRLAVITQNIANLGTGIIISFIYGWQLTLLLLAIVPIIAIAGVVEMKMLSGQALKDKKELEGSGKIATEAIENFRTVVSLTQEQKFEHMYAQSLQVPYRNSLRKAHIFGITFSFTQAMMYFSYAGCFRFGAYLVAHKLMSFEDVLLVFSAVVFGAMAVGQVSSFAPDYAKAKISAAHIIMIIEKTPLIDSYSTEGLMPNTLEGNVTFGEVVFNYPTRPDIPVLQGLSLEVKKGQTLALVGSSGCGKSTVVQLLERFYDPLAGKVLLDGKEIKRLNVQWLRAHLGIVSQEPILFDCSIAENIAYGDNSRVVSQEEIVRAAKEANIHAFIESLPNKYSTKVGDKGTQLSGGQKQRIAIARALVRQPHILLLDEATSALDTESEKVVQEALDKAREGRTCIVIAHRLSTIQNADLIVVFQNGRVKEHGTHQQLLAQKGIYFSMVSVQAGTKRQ

Chain of CYP2B6 (P20813 whole entry): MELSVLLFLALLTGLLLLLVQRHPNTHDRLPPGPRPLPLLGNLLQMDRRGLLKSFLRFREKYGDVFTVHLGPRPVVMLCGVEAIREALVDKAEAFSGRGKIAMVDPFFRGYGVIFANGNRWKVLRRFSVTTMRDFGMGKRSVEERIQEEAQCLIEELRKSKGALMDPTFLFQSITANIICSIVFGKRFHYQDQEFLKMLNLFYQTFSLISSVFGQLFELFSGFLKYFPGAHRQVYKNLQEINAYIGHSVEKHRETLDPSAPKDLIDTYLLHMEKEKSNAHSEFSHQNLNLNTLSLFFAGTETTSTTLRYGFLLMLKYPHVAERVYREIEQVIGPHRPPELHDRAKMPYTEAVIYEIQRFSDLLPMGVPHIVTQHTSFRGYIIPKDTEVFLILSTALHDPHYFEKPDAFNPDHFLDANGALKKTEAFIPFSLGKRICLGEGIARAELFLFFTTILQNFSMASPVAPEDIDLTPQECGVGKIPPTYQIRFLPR

**Q.** Which Ionization [1] does the source give for `CNC(=O)c1ccc(N2C(=S)N(c3cnc(C#N)c(C(F)(F)F)c3)C(=O)C23CCC3)cc1F` [Apalutamide, 4-[7-(6-cyano-5-trifluoromethylpyridin-3-yl)-8-oxo-6-thioxo-5,7-diazaspiro[3.4]oct-5-yl]-2-fluoro-N-methylbenzamide] here?
**A.** not ionizable

**Q.** And the CYP2B6 inhibition [2]?
**A.** moderate inhibitors

**Q.** And the “Substrate for P-gp” value [3]?
**A.** substrates
